Measurements: ChEMBL document CHEMBL3045569, “Synthesis of allyl esters of fatty acids and their ovicidal effect on Cydia pomonella (L.)” (2009)
In brackets after ≈: the same amount, converted by molar mass. Activity calls are given as the source filed them. No cut-off for these calls is given here.

System: Cydia pomonella
Assay: Ovicidal activity against <24 hr-old Cydia pomonella (codling moth) eggs assessed as increase in duration of the development of eggs applied as 0.1 ul drop solution topically measured for 3 days
Format: functional, organism-based
Conditions: not given

Structure (SMILES)	Activity
C=CCOC(=O)CCC [ALLYL BUTANOATE]	Active
C=CCOC(=O)CCCCCCCCC [ALLYL DECANOATE]	Active
C=CCOC(=O)CCCCCCCCCCC [ALLYL DODECANOATE]	Active
C=CCOC(=O)CCCCC [ALLYL HEXANOATE]	Active

System: Cydia pomonella
Assay: Ovicidal activity against <24 hr-old Cydia pomonella (codling moth) eggs assessed as mortality at the stage of black head development at 10 mg/ml applied as 0.1 ul drop solution topically measured for 3 days (acetone Rvb = 94.4 +/-0.1%)
Format: functional
Conditions: topical, 72 h

Structure (SMILES)	mortality at 10000 µg/mL
C=CCOC(=O)CCC [ALLYL BUTANOATE]	10%
C=CCOC(=O)CCCCCCCCC [ALLYL DECANOATE]	14.4%
C=CCOC(=O)CCCCCCCCCCC [ALLYL DODECANOATE]	18.9%
C=CCOC(=O)CCCCC [ALLYL HEXANOATE]	18.9%

System: Cydia pomonella
Assay: Ovicidal activity against <24 hr-old Cydia pomonella (codling moth) eggs assessed as mortality at the stage of red ring development at 10 mg/ml applied as 0.1 ul drop solution topically measured for 3 days (acetone Rvb = 4.4 +/-0.22%)
Format: functional
Conditions: topical, 72 h

Structure (SMILES)	mortality at 10000 µg/mL
C=CCOC(=O)CCC [ALLYL BUTANOATE]	14.4%
C=CCOC(=O)CCCCCCCCC [ALLYL DECANOATE]	16.7%
C=CCOC(=O)CCCCCCCCCCC [ALLYL DODECANOATE]	12.2%
C=CCOC(=O)CCCCC [ALLYL HEXANOATE]	13.3%

System: Cydia pomonella
Assay: Ovicidal activity against <24 hr-old Cydia pomonella (codling moth) eggs assessed as mortality at the stage of white head development at 10 mg/ml applied as 0.1 ul drop solution topically measured for 3 days (acetone Rvb = 1.1 +/-0.44%)
Format: functional
Conditions: topical, 72 h

Structure (SMILES)	mortality at 10000 µg/mL
C=CCOC(=O)CCC [ALLYL BUTANOATE]	75.6%
C=CCOC(=O)CCCCCCCCC [ALLYL DECANOATE]	68.9%
C=CCOC(=O)CCCCCCCCCCC [ALLYL DODECANOATE]	68.9%
C=CCOC(=O)CCCCC [ALLYL HEXANOATE]	67.8%

System: Cydia pomonella
Assay: Ovicidal activity against <24 hr-old Cydia pomonella (codling moth) eggs assessed as mortality applied as 0.1 ul drop solution topically measured for 3 days
Format: functional
Conditions: not given

Structure (SMILES)	LC90
C=CCOC(=O)CCC [ALLYL BUTANOATE]	3200 µg/mL (≈ 25 mM)
C=CCOC(=O)CCCCCCCCC [ALLYL DECANOATE]	2260 µg/mL (≈ 10.6 mM)
C=CCOC(=O)CCCCCCCCCCC [ALLYL DODECANOATE]	2340 µg/mL (≈ 9.73 mM)
C=CCOC(=O)CCCCC [ALLYL HEXANOATE]	2130 µg/mL (≈ 13.6 mM)

Same assay, conditions: Cydia pomonella, topical, 72 h

Structure (SMILES)	LC50
C=CCOC(=O)CCC [ALLYL BUTANOATE]	1060 µg/mL (≈ 8.27 mM)
C=CCOC(=O)CCCCCCCCC [ALLYL DECANOATE]	1400 µg/mL (≈ 6.59 mM)
C=CCOC(=O)CCCCCCCCCCC [ALLYL DODECANOATE]	1140 µg/mL (≈ 4.74 mM)

System: Cydia pomonella
Assay: Ovicidal activity against <24 hr-old Cydia pomonella (codling moth) eggs assessed as corrected mortality at 0.1 mg/ml applied as 0.1 ul drop solution topically measured for 3 days
Format: functional
Conditions: topical, 72 h

Structure (SMILES)	mortality at 100 µg/mL
C=CCOC(=O)CCC [ALLYL BUTANOATE]	6%
C=CCOC(=O)CCCCCCCCC [ALLYL DECANOATE]	7.4%
C=CCOC(=O)CCCCCCCCCCC [ALLYL DODECANOATE]	0%
C=CCOC(=O)CCCCC [ALLYL HEXANOATE]	8.4%

System: Cydia pomonella
Assay: Ovicidal activity against <24 hr-old Cydia pomonella (codling moth) eggs assessed as corrected mortality at 0.5 mg/ml applied as 0.1 ul drop solution topically measured for 3 days
Format: functional
Conditions: topical, 72 h

Structure (SMILES)	mortality at 500 µg/mL
C=CCOC(=O)CCC [ALLYL BUTANOATE]	20.5%
C=CCOC(=O)CCCCCCCCC [ALLYL DECANOATE]	12.4%
C=CCOC(=O)CCCCCCCCCCC [ALLYL DODECANOATE]	10%
C=CCOC(=O)CCCCC [ALLYL HEXANOATE]	22.4%

System: Cydia pomonella
Assay: Ovicidal activity against <24 hr-old Cydia pomonella (codling moth) eggs assessed as corrected mortality at 1 mg/ml applied as 0.1 ul drop solution topically measured for 3 days
Format: functional
Conditions: topical, 72 h

Structure (SMILES)	mortality at 1000 µg/mL
C=CCOC(=O)CCC [ALLYL BUTANOATE]	42.7%
C=CCOC(=O)CCCCCCCCC [ALLYL DECANOATE]	30.5%
C=CCOC(=O)CCCCCCCCCCC [ALLYL DODECANOATE]	36.4%
C=CCOC(=O)CCCCC [ALLYL HEXANOATE]	51.2%

System: Cydia pomonella
Assay: Ovicidal activity against <24 hr-old Cydia pomonella (codling moth) eggs assessed as corrected mortality at 1.75 mg/ml applied as 0.1 ul drop solution topically measured for 3 days
Format: functional
Conditions: topical, 72 h

Structure (SMILES)	mortality at 1750 µg/mL
C=CCOC(=O)CCC [ALLYL BUTANOATE]	72%
C=CCOC(=O)CCCCCCCCC [ALLYL DECANOATE]	76.3%
C=CCOC(=O)CCCCCCCCCCC [ALLYL DODECANOATE]	71.7%
C=CCOC(=O)CCCCC [ALLYL HEXANOATE]	83.8%

System: Cydia pomonella
Assay: Ovicidal activity against <24 hr-old Cydia pomonella (codling moth) eggs assessed as corrected mortality at 2.5 mg/ml applied as 0.1 ul drop solution topically measured for 3 days
Format: functional
Conditions: topical, 72 h

Structure (SMILES)	mortality at 2500 µg/mL
C=CCOC(=O)CCC [ALLYL BUTANOATE]	83.3%
C=CCOC(=O)CCCCCCCCC [ALLYL DECANOATE]	97.2%
C=CCOC(=O)CCCCCCCCCCC [ALLYL DODECANOATE]	95.9%
C=CCOC(=O)CCCCC [ALLYL HEXANOATE]	95.8%

System: Cydia pomonella
Assay: Ovicidal activity against <24 hr-old Cydia pomonella (codling moth) eggs assessed as corrected mortality at 5 mg/ml applied as 0.1 ul drop solution topically measured for 3 days
Format: functional
Conditions: topical, 72 h

Structure (SMILES)	mortality at 5000 µg/mL
C=CCOC(=O)CCC [ALLYL BUTANOATE]	98.7%
C=CCOC(=O)CCCCCCCCC [ALLYL DECANOATE]	98.7%
C=CCOC(=O)CCCCCCCCCCC [ALLYL DODECANOATE]	96.5%
C=CCOC(=O)CCCCC [ALLYL HEXANOATE]	98.7%

System: Cydia pomonella
Assay: Ovicidal activity against <24 hr-old Cydia pomonella (codling moth) eggs assessed as corrected mortality at 7.5 mg/ml applied as 0.1 ul drop solution topically measured for 3 days
Format: functional
Conditions: topical, 72 h

Structure (SMILES)	mortality at 7500 µg/mL
C=CCOC(=O)CCC [ALLYL BUTANOATE]	100%
C=CCOC(=O)CCCCCCCCC [ALLYL DECANOATE]	100%
C=CCOC(=O)CCCCCCCCCCC [ALLYL DODECANOATE]	98.8%
C=CCOC(=O)CCCCC [ALLYL HEXANOATE]	100%

System: Cydia pomonella
Assay: Ovicidal activity against <24 hr-old Cydia pomonella (codling moth) eggs assessed as corrected mortality at 10 mg/ml applied as 0.1 ul drop solution topically measured for 3 days
Format: functional
Conditions: topical, 72 h

Structure (SMILES)	mortality at 10000 µg/mL
C=CCOC(=O)CCC [ALLYL BUTANOATE]	100%
C=CCOC(=O)CCCCCCCCC [ALLYL DECANOATE]	100%
C=CCOC(=O)CCCCCCCCCCC [ALLYL DODECANOATE]	100%
C=CCOC(=O)CCCCC [ALLYL HEXANOATE]	100%
